Results on one molecule are retold here after ChEMBL document CHEMBL1764992, “RNA-binding and viral reverse transcriptase inhibitory activity of a novel cationic diamino acid-based peptide” (J Med Chem, 2011).

Calls of active or inactive are those of the source. The calls are words filed in the database; no cut-off is given here.

Assay [1] has as its system Nucleic Acid. The experiment in a line: Binding affinity to dT12 DNA by circular dichroism spectra analysis. The assay is classed as nucleic-acid assay. (In general: Circular dichroism is widely used to follow secondary structure.)
The subject of assay [2] is Nucleic Acid. The experiment in a line: Binding affinity to dT12 DNA by ultraviolet spectra analysis. Format: nucleic-acid assay.
Assay [3] relates to Nucleic Acid. The experiment in a line: Binding affinity to poly(U) RNA by circular dichroism spectra analysis. Format: nucleic-acid assay.
Assay [4] concerns Nucleic Acid. Nature of the assay: Binding affinity to poly(U) RNA by ultraviolet spectra analysis. The assay is classed as nucleic-acid assay.
Assay [5] has as its system Moloney murine leukemia virus. The experiment in a line: Inhibition of Moloney murine leukemia virus reverse transcriptase at 0.5 ug after 1 hr by RT-PCR analysis relative to control.
Assay [6] has as its system Moloney murine leukemia virus. Nature of the assay: Inhibition of Moloney murine leukemia virus reverse transcriptase at 1 ug after 1 hr by RT-PCR analysis relative to control.
Assay [7] deals with Human immunodeficiency virus type 1 reverse transcriptase (Human immunodeficiency virus 1) (UniProt Q72547). Nature of the assay: Inhibition of HIV1 reverse transcriptase at 0.5 to 1 ug after 1 hr by RT-PCR analysis relative to control.

With `Cc1cn(CC(=O)NCCCC[C@H](N)C(=O)NCC[C@H](N)C(=O)NCCCC[C@H](N)C(=O)NCC[C@H](N)C(=O)NCCCC[C@H](N)C(=O)NCC[C@H](N)C(=O)NCCCC[C@H](N)C(=O)NCC[C@H](N)C(=O)NCCCC[C@H](N)C(=O)NCC[C@H](N)C(=O)NCCCC[C@H](N)C(=O)NCC[C@H](N)C(=O)NCCCC[C@H](N)C(=O)NCC[C@H](N)C(=O)NCCCC[C@H](N)C(=O)NCC[C@H](N)C(=O)NCCCC[C@H](N)C(N)=O)c(=O)[nH]c1=O`, the outcome in assay [1] and in assay [2] was inactive. The outcome in assay [3] and in assay [4] was Active. For the same molecule, the values for the inhibition in assay [5], in assay [6] and in assay [7] were 30%, 18% and 60%, respectively.
